The source of these data is ChEMBL document CHEMBL1129946, “New esters of 4-amino-5-chloro-2-methoxybenzoic acid as potent agonists and antagonists for 5-HT4 receptors” (J Med Chem, 1997).

SMILES strings stand for the structures.

The target of assay [1] is T1, 5-hydroxytryptamine receptor 4 (Cavia porcellus, UniProt O70528). Kind of assay: 5-hydroxytryptamine 4 receptor agonist activity, concentration which gave 50% increase in the response to electrically-stimulated myenteric plexus and longitudinal muscle of the guinea pig ileum. It counts as functional, tissue-based.
T1 sequence (O70528 whole entry): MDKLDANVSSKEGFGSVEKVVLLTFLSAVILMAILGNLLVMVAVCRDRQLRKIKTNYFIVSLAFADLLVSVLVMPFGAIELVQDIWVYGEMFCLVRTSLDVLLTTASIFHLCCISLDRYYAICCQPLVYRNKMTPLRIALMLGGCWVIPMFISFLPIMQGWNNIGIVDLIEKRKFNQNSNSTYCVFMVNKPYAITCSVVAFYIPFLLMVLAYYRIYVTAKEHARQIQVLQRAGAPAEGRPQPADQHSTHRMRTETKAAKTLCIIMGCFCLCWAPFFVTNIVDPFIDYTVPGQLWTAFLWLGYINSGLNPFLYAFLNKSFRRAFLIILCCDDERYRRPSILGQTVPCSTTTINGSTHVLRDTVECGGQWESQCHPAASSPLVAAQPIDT
In assay [2] the target is 5-hydroxytryptamine receptor 4 (Rattus norvegicus, UniProt Q62758). Nature of the assay: Binding affinity towards 5-hydroxytryptamine 4 receptor was determined in rat striatal membranes using [3H]GR-113808 as radioligand. It counts as cell membranes, Striatum, Membrane.
Sequence of 5-hydroxytryptamine receptor 4 (Rattus norvegicus, UniProt Q62758) (Q62758 whole entry): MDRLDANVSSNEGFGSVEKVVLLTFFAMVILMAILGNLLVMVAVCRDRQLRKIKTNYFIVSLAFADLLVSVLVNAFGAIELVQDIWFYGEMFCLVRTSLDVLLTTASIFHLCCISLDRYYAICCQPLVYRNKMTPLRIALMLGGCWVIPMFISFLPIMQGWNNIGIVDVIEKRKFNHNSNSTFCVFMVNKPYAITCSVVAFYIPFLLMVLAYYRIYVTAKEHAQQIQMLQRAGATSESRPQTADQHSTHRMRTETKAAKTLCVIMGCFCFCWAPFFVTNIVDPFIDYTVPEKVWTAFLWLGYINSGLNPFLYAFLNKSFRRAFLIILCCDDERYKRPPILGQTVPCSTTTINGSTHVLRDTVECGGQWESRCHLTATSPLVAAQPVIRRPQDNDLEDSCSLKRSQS
Assay [3] deals with T2, Serotonin 3 (5-HT3) receptor (Rattus norvegicus, UniProt P35563+Q9JJ16).
T2 sequence (P35563 whole entry): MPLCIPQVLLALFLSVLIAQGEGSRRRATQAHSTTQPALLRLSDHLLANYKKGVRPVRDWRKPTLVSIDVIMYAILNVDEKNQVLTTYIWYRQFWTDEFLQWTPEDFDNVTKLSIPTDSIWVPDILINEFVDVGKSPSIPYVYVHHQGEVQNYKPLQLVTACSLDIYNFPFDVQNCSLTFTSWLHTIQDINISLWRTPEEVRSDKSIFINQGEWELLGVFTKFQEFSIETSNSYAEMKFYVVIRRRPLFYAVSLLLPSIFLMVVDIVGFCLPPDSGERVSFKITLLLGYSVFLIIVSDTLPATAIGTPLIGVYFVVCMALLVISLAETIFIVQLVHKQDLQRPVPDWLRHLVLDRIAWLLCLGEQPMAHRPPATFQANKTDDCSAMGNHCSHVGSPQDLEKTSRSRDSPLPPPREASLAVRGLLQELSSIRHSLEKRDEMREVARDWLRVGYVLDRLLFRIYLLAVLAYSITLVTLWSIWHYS
T2 sequence (Q9JJ16 whole entry): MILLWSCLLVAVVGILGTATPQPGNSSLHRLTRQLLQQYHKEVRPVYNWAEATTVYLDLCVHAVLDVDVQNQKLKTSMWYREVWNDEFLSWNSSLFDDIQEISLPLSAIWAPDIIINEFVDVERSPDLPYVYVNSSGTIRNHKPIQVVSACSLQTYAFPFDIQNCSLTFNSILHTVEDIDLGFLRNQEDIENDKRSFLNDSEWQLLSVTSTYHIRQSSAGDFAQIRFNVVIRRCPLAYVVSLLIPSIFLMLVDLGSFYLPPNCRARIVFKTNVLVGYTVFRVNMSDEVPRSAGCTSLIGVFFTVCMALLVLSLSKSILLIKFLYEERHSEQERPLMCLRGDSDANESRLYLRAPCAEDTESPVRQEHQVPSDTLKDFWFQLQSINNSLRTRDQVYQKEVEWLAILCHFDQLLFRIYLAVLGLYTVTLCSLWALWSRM
Kind of assay: Binding affinity was measured on 5-hydroxytryptamine 3 receptor using [3H]-BRL 43694 as radioligand in rat posterior cortex.

The target of assay [4] is 5-hydroxytryptamine receptor 4 (Cavia porcellus) (UniProt O70528). Nature of the assay: 5-hydroxytryptamine 4 receptor agonist activity is expressed as percent of the maximum 5-HT response. The assay is classed as functional.
Sequence of 5-hydroxytryptamine receptor 4 (Cavia porcellus) (O70528 whole entry): as the sequence (O70528 whole entry) above
Assay [5] has as its target T1, 5-hydroxytryptamine receptor 4. Nature of the assay: 5-hydroxytryptamine 4 receptor antagonist activity, concentration which gave 50% reduction of the 5-HT-induced contractions in the guinea pig ileum. It counts as functional, tissue-based.
For assay [6] the target is unchanged. Kind of assay: 5-hydroxytryptamine 4 receptor antagonist activity, concentration which gave 50% reduction of the 5-HT-induced contractions in the guinea pig ileum; Inactive up to 10E-5 M. It counts as functional, tissue-based.
For assay [7] the target is unchanged.
Assay [8] deals with T2, Serotonin 3 (5-HT3) receptor. Kind of assay: Binding affinity was measured on 5-hydroxytryptamine 3 receptor using [3H]-BRL 43694 as radioligand in rat posterior cortex.

Take `COc1cc(N)c(Cl)cc1C(=O)OCCN1CCCC(O)C1` (stereo in doubt; 7j) [listing 1 of 2 here]: the EC50 in assay [1] is 0.005 µM. The Ki (in general, the equilibrium dissociation constant of an inhibitor or competing ligand from its target) was 0.0048 µM in assay [2] and > 1 µM in assay [3].

Take `COc1cc(N)c(Cl)cc1C(=O)N[C@@H]1CN2CCC1CC2`: in assay [1], the EC50 was found to be 0.077 µM. Moreover, the Activity in assay [4] is 100%.

`COc1cc(N)c(Cl)cc1C(=O)OCC[N+]12CCC(CC1)CC2` came in with an EC50 in assay [1] of 0.0053 µM. Besides, the Ki in assay [2] turned out to be 0.00603 µM. This molecule also showed an Activity in assay [4] of 78%. Further, the IC50 (usually the concentration that gives 50% inhibition) in assay [5] was ~0.02 µM.

`COc1cc(N)c(Cl)cc1C(=O)OCCN1CCCC1` showed an EC50 in assay [1] of 0.04 µM. The Ki in assay [2] stood at 0.00535 µM. In addition, the Activity in assay [4] was determined as 50%. In assay [5], half-maximal inhibition (IC50) was put at 0.2 µM.

In assay [2], `CCN(CC)CCOC(=O)c1cc(Cl)c(N)cc1OC` registered an inhibition constant Ki of 0.0055 µM.

`COc1cc(N)c(Cl)cc1C(=O)OCCN1CCOCC1`: the EC50 in assay [1] worked out at 0.113 µM. The affinity in assay [2] corresponds to a Ki of 0.0356 µM. In addition, in assay [6], the IC50 entry is “Not Active”.

In assay [1], `COc1cc(N)c(Cl)cc1C(=O)OCCN1CCC(C(N)=O)CC1` yielded an EC50 of 0.019 µM. In assay [2], this molecule displayed a Ki of 0.00143 µM. Further, in assay [4], the Activity was determined as 65%.

On to `COc1cc(N)c(Cl)cc1C(=O)OCCN1CCCC(C)(C)C1`, for which the affinity in assay [2], expressed as Ki, was 0.00172 µM. The same molecule came in with an IC50 in assay [5] of 0.15 µM.

`COc1cc(N)c(Cl)cc1C(=O)N[C@H]1CN2CCC1CC2` [(R)ZACOPRIDE] came in with an EC50 in assay [1] of 0.166 µM. Moreover, the Ki in assay [2] turned out to be 1.51 µM. Also, the Activity in assay [4] turned out to be 84%.

As for `COc1cc(N)c(Cl)cc1C(=O)OCCN1CC2CCC(CC2)C1`, the EC50 in assay [1] amounted to 0.0078 µM. This molecule had a Ki in assay [2] of 0.00545 µM. Also, in assay [4], the Activity was 61%.

`COc1cc(N)c(Cl)cc1C(=O)OCCN(C)C` returned an EC50 in assay [1] of 0.18 µM. In assay [2], this molecule displayed a Ki of 0.047 µM. For the same molecule, the Activity in assay [4] was 60%. In assay [5], this molecule displayed an IC50 of 0.6 µM.

As to `COc1cc(N)c(Cl)cc1C(=O)OCCN1CC=CCC1`, in assay [1], the EC50 was 0.029 µM. In assay [2], this molecule came in with a Ki of 0.0091 µM. The molecule further had an Activity in assay [4] of 65%.

In turn, `COc1cc(N)c(Cl)cc1C(=O)OCCN1CCN(c2ccccc2)CC1` returned an IC50 in assay [5] of 0.1 µM.

As to `NCCc1c[nH]c2ccc(O)cc12` [SEROTONIN], the IC50 entry in assay [7] is “Not Active”.

As to `Cn1cc(C(=O)OCC2CCN(CCNS(C)(=O)=O)CC2)c2ccccc21`, affinity in assay [2] was put at a Ki of 0.00015 µM. Moreover, 0.013 µM corresponded to half-maximal inhibition in assay [5] (IC50).

Molecule `COc1cc(N)c(Cl)cc1C(=O)OCCN1CCC(C)CC1` displayed an EC50 in assay [1] of 0.003 µM. This molecule also showed a Ki in assay [2] of 0.00408 µM. For the same molecule, in assay [4], the Activity turned out to be 57%.

For the molecule `COc1cc(N)c(Cl)cc1C(=O)OCCN1CC(C)CC(C)C1` (stereo in doubt; 7g), the values for the Ki in assay [2] and in assay [8] were 0.00026 µM and > 1 µM, respectively. In addition, in assay [5], 0.011 µM corresponded to half-maximal inhibition (IC50).

Consider `COc1cc(N)c(Cl)cc1C(=O)NCCN1CCCCC1`, for which the EC50 in assay [1] is > 1 µM. Also, the affinity in assay [2], expressed as Ki, was 0.135 µM. In addition, the IC50 in assay [5] was > 1 µM.

Regarding `CC(C)n1c(=O)n(C(=O)NC2CC3CCC(C2)N3C)c2ccccc21` (centres undefined), the EC50 in assay [1] is 0.043 µM. In assay [2], this molecule returned a Ki of 0.257 µM. For the same molecule, the IC50 entry in assay [7] is “Not Active”.

For the molecule `COc1cc(N)c(Cl)cc1C(=O)NCCN(C)C`, the Ki in assay [2] is > 1 µM.

`COc1cc(N)c(Cl)cc1C(=O)OCCN1CCCC(O)C1` (stereo in doubt; 7k) [listing 1 of 2 here] displayed an EC50 in assay [1] of 0.004 µM. In assay [2], this molecule showed a Ki of 0.001 µM.

Molecule `COc1cc(N)c(Cl)cc1C(=O)OCCN1C2CCCC1CC2` returned an EC50 in assay [1] of 0.04 µM. In assay [2], this molecule yielded a Ki of 0.0093 µM. The same molecule returned an Activity in assay [4] of 63%.

In assay [4], `COc1cc(N)c(Cl)cc1C(=O)OCCN1CCCC(O)C1` (stereo in doubt; 7l) [listing 1 of 2 here] showed an Activity of 61%.

For `COc1cc(N)c(Cl)cc1C(=O)NCCN1CC(C)CC(C)C1` (centres undefined), in assay [1], the EC50 was ~0.93 µM. The molecule further registered a Ki in assay [2] of 0.103 µM. Also, the Activity in assay [4] was found to be 80%.

For `COc1cc(N)c(Cl)cc1C(=O)OCCN1CCCC(C)C1` (centres undefined), the EC50 in assay [1] came out at 0.015 µM. The inhibition constant (Ki) in assay [2] was 0.00093 µM; in assay [8], > 1 µM. The same molecule registered an Activity in assay [4] of 54%.

`COc1cc(N)c(Cl)cc1C(=O)OCC[n+]1ccccc1` yielded an EC50 in assay [1] of 0.017 µM. The molecule also showed a Ki in assay [2] of 0.0062 µM.

The molecule `COc1cc(N)c(Cl)cc1C(=O)OC1CC2CCC(C1)N2C` (centres undefined) gave an Activity in assay [4] of 41%.

In assay [1], `COc1cc(N)c(Cl)cc1C(=O)OCCN1CCCCC1C` (centres undefined) came in with an EC50 of 0.006 µM. Also, affinity in assay [2] was put at a Ki of 0.0078 µM. The molecule further showed an Activity in assay [4] of 82%.

On to `COc1cc(N)c(Cl)cc1C(=O)OCCN1CCC(O)CC1`, for which the EC50 in assay [1] worked out at 0.014 µM. Further, affinity in assay [2] was put at a Ki of 0.00142 µM. This molecule also had an Activity in assay [4] of 72%.

In turn, `COc1cc(N)c(Cl)cc1C(=O)OCCN1CCCCC1` displayed a Ki in assay [8] of 0.73 µM.

For the molecule `COc1cc(N)c(Cl)cc1C(=O)OCCN1CC(C)OC(C)C1` (centres undefined), the Ki in assay [2] amounted to 0.00628 µM. Also, the IC50 was 0.3 µM in assay [5] and “Not Active” in assay [7].

`COc1cc(N)c(Cl)cc1C(=O)OCCN1CCCC(O)C1` (stereo in doubt; 7j) [listing 2 of 2 here] gave an Activity in assay [4] of 64%.

Regarding `COc1cc(N)c(Cl)cc1C(=O)OCCN1CCCC(O)C1` (stereo in doubt; 7l) [listing 2 of 2 here], the EC50 in assay [1] came to 0.01 µM. Further, the affinity in assay [2] corresponds to a Ki of 0.002 µM.

On to `COc1cc(N)c(Cl)cc1C(=O)OCCN1CCCCCC1`, for which the EC50 in assay [1] was 0.0044 µM. This molecule had an inhibition constant Ki in assay [2] of 0.00092 µM. In assay [4], this molecule returned an Activity of 59%.

As for `COc1cc(N)c(Cl)cc1C(=O)N(C)CCN1CCCCC1`, the EC50 in assay [1] is > 1 µM. For the same molecule, in assay [2], the inhibition constant (Ki) was > 1 µM. The IC50 in assay [5] was > 1 µM.

`COc1cc(N)c(Cl)cc1C(=O)OCCN1CCCC(O)C1` (stereo in doubt; 7k) [listing 2 of 2 here] came in with an Activity in assay [4] of 62%.

Molecule `COc1cc(N)c(Cl)cc1C(=O)OCCCN1CCCCC1` yielded an EC50 in assay [1] of 0.03 µM. For the same molecule, the Ki in assay [2] amounted to 0.0281 µM. The molecule also came in with an Activity in assay [4] of 52%.

`COc1cc(N)c(Cl)cc1C(=O)OCCN1C(C)CCCC1C` (centres undefined) displayed a Ki in assay [2] of 0.0395 µM.

Take `COc1cc(N)c(Cl)cc1C(=O)OCCN1CC(C)CC(C)C1` (stereo in doubt; 7h): the values for the Ki in assay [2] and in assay [8] were 0.00232 µM and > 1 µM, respectively. The molecule further returned an IC50 in assay [5] of 0.013 µM.

With `COc1cc(N)c(Cl)cc1C(=O)NC1CC2CCC(C1)N2C` (centres undefined), affinity in assay [2] was put at a Ki of 0.0486 µM.

Regarding `COc1cc(N)c(Cl)cc1C(=O)OCCN1CCC(NC(C)=O)CC1`, the EC50 in assay [1] came out at 0.013 µM. In assay [2], this molecule displayed a Ki of 0.00105 µM. Further, the Activity in assay [4] was 59%.
